Assay results published in US20150105252A1, “SUBSTITUTED PYRAZOLES AS HERBICIDES” (E I DU PONT DE NEMOURS AND COMPANY, priority 2013, published 2015).

Columns and labels:
nutsedge, yellow = assay: Test C preemergence; format: in vivo, Cyperus esculentus; settings: preemergence; for Plant response rating, Nutsedge, Yellow: 125 g ai/ha, scale 0 to 100, 0 = no effect, 100 = complete control
How it was run: (§1)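 Visual rating, 0–100 scale (0 no effect, 100 complete control), vs untreated controls after 13–15 d greenhouse. Pre: seeds in loam/sand, treated at sowing. Post: plants in peat-based mix, 1- to 4-leaf (2–18 cm). Solvent + surfactant formulation, non-phytotoxic.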

galium [1] = assay: Test C preemergence; format: in vivo, Galium aparine; settings: preemergence; for Plant response rating, Galium: 125 g ai/ha, scale 0 to 100, 0 = no effect, 100 = complete control
How it was run: as §1

foxtail, giant [2] = assay: Test C postemergence; format: in vivo, Setaria faberii; settings: for Plant response rating (scale of 0 to 100 where 0 is no effect and 100 is complete control), Foxtail, Giant: Postemergence, 31 g ai/ha, visually evaluated after 13 to 15 days; for Foxtail, Giant plant response rating / Plant response rating, Foxtail, Giant: postemergence; for Foxtail, Giant plant response rating: 62 g ai/ha, scale 0 to 100
How it was run: as §1

blackgrass = assay: Test C postemergence; format: in vivo, Alopecurus myosuroides; settings: for Plant response rating (scale of 0 to 100 where 0 is no effect and 100 is complete control), Blackgrass: Postemergence, 31 g ai/ha, visually evaluated after 13 to 15 days; for Blackgrass plant response rating / Plant response rating, Blackgrass: postemergence; for Blackgrass plant response rating: 62 g ai/ha, scale 0 to 100
How it was run: as §1

morningglory [3] = assay: Test A postemergence; format: in vivo, Ipomoea spp.
How it was run: (§2)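 Injury readout: eye-scored versus untreated controls, 0 to 100. Exposure period: ~10 days, greenhouse. Application: soil-directed spray over sown seed (pre) or spray on seedlings 2–10 cm tall with one or two leaves (post), compound carried in non-phytotoxic solvent including surfactant.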

corn [4] = assay: Test A postemergence; format: in vivo, Zea mays
How it was run: as §2

crabgrass, large [5] = assay: Test A postemergence; format: in vivo, Digitaria sanguinalis
How it was run: as §2

ryegrass, Italian = assay: Test C preemergence; format: in vivo, Lolium multiflorum; settings: preemergence; for Plant response rating, Ryegrass, Italian: 125 g ai/ha, scale 0 to 100, 0 = no effect, 100 = complete control
How it was run: as §1

foxtail, giant [6] = assay: Test A postemergence; format: in vivo, Setaria faberii
How it was run: as §2

morningglory [7] = assay: Test C postemergence; format: in vivo, Ipomoea coccinea; settings: for Plant response rating (scale of 0 to 100 where 0 is no effect and 100 is complete control), Morningglory: Postemergence, 31 g ai/ha, visually evaluated after 13 to 15 days; for Morningglory plant response rating / Plant response rating, Morningglory: postemergence; for Morningglory plant response rating: 62 g ai/ha, scale 0 to 100
How it was run: as §1

barnyardgrass = assay: Test C postemergence; format: in vivo, Echinochloa crus-galli; settings: for Plant response rating (scale of 0 to 100 where 0 is no effect and 100 is complete control), Barnyardgrass: Postemergence, 31 g ai/ha, visually evaluated after 13 to 15 days; for Barnyardgrass plant response rating / Plant response rating, Barnyardgrass: postemergence; for Barnyardgrass plant response rating: 62 g ai/ha, scale 0 to 100
How it was run: as §1

corn [8] = assay: Test C preemergence; format: in vivo, Zea mays; settings: preemergence; for Plant response rating, Corn: 125 g ai/ha, scale 0 to 100, 0 = no effect, 100 = complete control
How it was run: as §1

waterhemp = assay: Test C preemergence; format: in vivo, Amaranthus rudis; settings: preemergence; for Plant response rating, Waterhemp: 125 g ai/ha, scale 0 to 100, 0 = no effect, 100 = complete control
How it was run: as §1

galium [9] = assay: Test C postemergence; format: in vivo, Galium aparine; settings: for Plant response rating (scale of 0 to 100 where 0 is no effect and 100 is complete control), Galium: Postemergence, 31 g ai/ha, visually evaluated after 13 to 15 days; for Galium plant response rating / Plant response rating, Galium: postemergence; for Galium plant response rating: 62 g ai/ha, scale 0 to 100
How it was run: as §1

crabgrass, large [10] = assay: Test A preemergence; format: in vivo, Digitaria sanguinalis; settings: preemergence; for Crabgrass, Large plant response rating (0 to 100 scale): 125 g ai/ha, visual injury approx. 10 days after treatment; for Crabgrass, Large plant response rating: 500 g ai/ha, visual injury after approx. 10 days, 0 to 100 scale (0 no effect, 100 complete control)
How it was run: as §2

wheat = assay: Test A preemergence; format: in vivo, Triticum aestivum; settings: preemergence; for Wheat plant response rating (0 to 100 scale): 125 g ai/ha, visual injury approx. 10 days after treatment; for Wheat plant response rating: 500 g ai/ha, visual injury after approx. 10 days, 0 to 100 scale (0 no effect, 100 complete control)
How it was run: as §2

[11] = 31 g ai/ha, visual rating, scale 0 to 100 (0 no effect, 100 complete control), 13 to 15 days
[12] = 62 g ai/ha, scale 0 to 100 (0 no effect, 100 complete control), 13 to 15 days
[13] = 250 g ai/ha, scale 0 to 100, 0 is no effect, 100 is complete control
[14] = 250 g ai/ha, scale 0 to 100 (0 no effect, 100 complete control)
[15] = 125 g ai/ha, scale 0 to 100, 0 no effect, 100 complete control
[16] = Postemergence, 500 g ai/ha, 0 to 100 scale (0 no effect, 100 complete control)
[17] = postemergence, 125 g ai/ha, about 10 days, visual rating on 0 to 100 scale (0 no effect, 100 complete control)

CCCc1cc(C(=O)NC(C)C)nn1Cc1ccnc(C(F)(F)F)c1 [Compound 186]
Nutsedge, Yellow plant response rating (nutsedge, yellow; [11]): 10
Nutsedge, Yellow plant response rating (nutsedge, yellow; [12]): 60
Plant response rating, Nutsedge, Yellow (nutsedge, yellow; 13 to 15 days): 85
Nutsedge, Yellow plant response rating (nutsedge, yellow; [13]): 98
Galium plant response rating (galium [1]; [11]): 50
Galium plant response rating (galium [1]; [12]): 100
Plant response rating, Galium (galium [1]; 13 to 15 days): 100
Galium plant response rating (galium [1]; [13]): 95
Plant response rating (scale of 0 to 100 where 0 is no effect and 100 is complete control), Foxtail, Giant (foxtail, giant [2]): 5
Foxtail, Giant plant response rating (foxtail, giant [2]): 30
Plant response rating, Foxtail, Giant (foxtail, giant [2]; [14]): 75
Plant response rating, Foxtail, Giant (foxtail, giant [2]; [15]): 60
Plant response rating (scale of 0 to 100 where 0 is no effect and 100 is complete control), Blackgrass (blackgrass): 5
Blackgrass plant response rating (blackgrass): 10
Plant response rating, Blackgrass (blackgrass; [14]): 60
Plant response rating, Blackgrass (blackgrass; [15]): 10
Morningglory plant response rating (morningglory [3]; Postemergence, 125 g ai/ha, 0 to 100 scale, 0 no effect, 100 complete control): 0
Morningglory plant response rating (morningglory [3]; [16]): 100
Corn plant response rating (corn [4]; [16]): 100
Corn plant response rating (corn [4]; [17]): 100
Crabgrass, Large plant response rating (crabgrass, large [5]; [16]): 90
Crabgrass, Large plant response rating (crabgrass, large [5]; [17]): 90
Ryegrass, Italian plant response rating (ryegrass, Italian; [11]): 5
Ryegrass, Italian plant response rating (ryegrass, Italian; [12]): 80
Plant response rating, Ryegrass, Italian (ryegrass, Italian; 13 to 15 days): 90
Ryegrass, Italian plant response rating (ryegrass, Italian; [13]): 90
Foxtail, Giant plant response rating (foxtail, giant [6]; [16]): 90
Foxtail, Giant plant response rating (foxtail, giant [6]; [17]): 90
Plant response rating (scale of 0 to 100 where 0 is no effect and 100 is complete control), Morningglory (morningglory [7]): 85
Morningglory plant response rating (morningglory [7]): 85
Plant response rating, Morningglory (morningglory [7]; [14]): 75
Plant response rating, Morningglory (morningglory [7]; [15]): 75
Plant response rating (scale of 0 to 100 where 0 is no effect and 100 is complete control), Barnyardgrass (barnyardgrass): 5
Barnyardgrass plant response rating (barnyardgrass): 10
Plant response rating, Barnyardgrass (barnyardgrass; [14]): 55
Plant response rating, Barnyardgrass (barnyardgrass; [15]): 10
Corn plant response rating (corn [8]; [11]): 55
Corn plant response rating (corn [8]; [12]): 85
Plant response rating, Corn (corn [8]; 13 to 15 days): 95
Corn plant response rating (corn [8]; [13]): 98
Waterhemp plant response rating (waterhemp; [11]): 100
Waterhemp plant response rating (waterhemp; [12]): 100
Plant response rating, Waterhemp (waterhemp; 13 to 15 days): 100
Waterhemp plant response rating (waterhemp; [13]): 100
Plant response rating (scale of 0 to 100 where 0 is no effect and 100 is complete control), Galium (galium [9]): 70
Galium plant response rating (galium [9]): 80
Plant response rating, Galium (galium [9]; [14]): 100
Plant response rating, Galium (galium [9]; [15]): 75
Crabgrass, Large plant response rating (0 to 100 scale) (crabgrass, large [10]): 100
Crabgrass, Large plant response rating (crabgrass, large [10]): 100
Wheat plant response rating (0 to 100 scale) (wheat): 90
Wheat plant response rating (wheat): 100

CCOc1cc(C(=O)NOC(C)C)nn1Cc1ccnc(C(F)(F)F)c1 [Compound 153]
Nutsedge, Yellow plant response rating (nutsedge, yellow; [11]): 20
Nutsedge, Yellow plant response rating (nutsedge, yellow; [12]): 75
Plant response rating, Nutsedge, Yellow (nutsedge, yellow; 13 to 15 days): 85
Nutsedge, Yellow plant response rating (nutsedge, yellow; [13]): 95
Galium plant response rating (galium [1]; [11]): 30
Galium plant response rating (galium [1]; [12]): 100
Plant response rating, Galium (galium [1]; 13 to 15 days): 100
Galium plant response rating (galium [1]; [13]): 100
Plant response rating (scale of 0 to 100 where 0 is no effect and 100 is complete control), Foxtail, Giant (foxtail, giant [2]): 5
Foxtail, Giant plant response rating (foxtail, giant [2]): 5
Plant response rating, Foxtail, Giant (foxtail, giant [2]; [14]): 65
Plant response rating, Foxtail, Giant (foxtail, giant [2]; [15]): 10
Plant response rating (scale of 0 to 100 where 0 is no effect and 100 is complete control), Blackgrass (blackgrass): 0
Blackgrass plant response rating (blackgrass): 5
Plant response rating, Blackgrass (blackgrass; [14]): 5
Plant response rating, Blackgrass (blackgrass; [15]): 5
Morningglory plant response rating (morningglory [3]; [16]): 100
Morningglory plant response rating (morningglory [3]; [17]): 100
Corn plant response rating (corn [4]; [16]): 100
Corn plant response rating (corn [4]; [17]): 90
Crabgrass, Large plant response rating (crabgrass, large [5]; [16]): 100
Crabgrass, Large plant response rating (crabgrass, large [5]; [17]): 100
Ryegrass, Italian plant response rating (ryegrass, Italian; [11]): 5
Ryegrass, Italian plant response rating (ryegrass, Italian; [12]): 50
Plant response rating, Ryegrass, Italian (ryegrass, Italian; 13 to 15 days): 90
Ryegrass, Italian plant response rating (ryegrass, Italian; [13]): 90
Foxtail, Giant plant response rating (foxtail, giant [6]; [16]): 100
Foxtail, Giant plant response rating (foxtail, giant [6]; [17]): 100
Plant response rating (scale of 0 to 100 where 0 is no effect and 100 is complete control), Morningglory (morningglory [7]): 65
Morningglory plant response rating (morningglory [7]): 85
Plant response rating, Morningglory (morningglory [7]; [14]): 80
Plant response rating, Morningglory (morningglory [7]; [15]): 70
Plant response rating (scale of 0 to 100 where 0 is no effect and 100 is complete control), Barnyardgrass (barnyardgrass): 5
Barnyardgrass plant response rating (barnyardgrass): 10
Plant response rating, Barnyardgrass (barnyardgrass; [14]): 15
Plant response rating, Barnyardgrass (barnyardgrass; [15]): 10
Corn plant response rating (corn [8]; [11]): 10
Corn plant response rating (corn [8]; [12]): 50
Plant response rating, Corn (corn [8]; 13 to 15 days): 95
Corn plant response rating (corn [8]; [13]): 98
Waterhemp plant response rating (waterhemp; [11]): 60
Waterhemp plant response rating (waterhemp; [12]): 100
Plant response rating, Waterhemp (waterhemp; 13 to 15 days): 100
Waterhemp plant response rating (waterhemp; [13]): 100
Plant response rating (scale of 0 to 100 where 0 is no effect and 100 is complete control), Galium (galium [9]): 50
Galium plant response rating (galium [9]): 60
Plant response rating, Galium (galium [9]; [14]): 80
Plant response rating, Galium (galium [9]; [15]): 70
Crabgrass, Large plant response rating (0 to 100 scale) (crabgrass, large [10]): 100
Crabgrass, Large plant response rating (crabgrass, large [10]): 100
Wheat plant response rating (0 to 100 scale) (wheat): 100
Wheat plant response rating (wheat): 100
